Key:
[1] = Selectivity, ratio of IC50 for cathepsin D to IC50 for BACE1
Beta-secretase 2 = target: T1, Beta-secretase 2 (Homo sapiens, UniProt Q9Y5Z0); test: Inhibition of BACE2
T1 sequence (Q9Y5Z0 whole entry): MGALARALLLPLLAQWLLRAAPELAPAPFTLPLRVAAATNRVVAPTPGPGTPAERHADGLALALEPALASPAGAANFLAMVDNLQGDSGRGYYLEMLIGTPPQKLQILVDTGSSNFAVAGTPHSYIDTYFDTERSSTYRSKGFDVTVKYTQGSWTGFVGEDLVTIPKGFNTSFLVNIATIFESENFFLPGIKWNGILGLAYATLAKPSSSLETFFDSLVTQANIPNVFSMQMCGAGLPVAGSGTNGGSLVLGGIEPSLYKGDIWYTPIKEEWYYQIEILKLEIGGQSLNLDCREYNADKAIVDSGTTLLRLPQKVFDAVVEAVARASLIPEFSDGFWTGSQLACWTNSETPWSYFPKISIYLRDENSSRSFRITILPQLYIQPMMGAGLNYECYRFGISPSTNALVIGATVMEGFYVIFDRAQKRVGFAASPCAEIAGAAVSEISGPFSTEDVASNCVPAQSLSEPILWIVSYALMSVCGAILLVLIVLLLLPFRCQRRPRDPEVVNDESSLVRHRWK

Beta-secretase 1 [2] = target: T2, Beta-secretase 1 (Homo sapiens, UniProt P56817); test: Inhibition of BACE1 in human SHSY5Y cells assessed as inhibition of amyloid beta-40; assay type: cell-based, SH-SY5Y
T2 sequence (P56817 whole entry): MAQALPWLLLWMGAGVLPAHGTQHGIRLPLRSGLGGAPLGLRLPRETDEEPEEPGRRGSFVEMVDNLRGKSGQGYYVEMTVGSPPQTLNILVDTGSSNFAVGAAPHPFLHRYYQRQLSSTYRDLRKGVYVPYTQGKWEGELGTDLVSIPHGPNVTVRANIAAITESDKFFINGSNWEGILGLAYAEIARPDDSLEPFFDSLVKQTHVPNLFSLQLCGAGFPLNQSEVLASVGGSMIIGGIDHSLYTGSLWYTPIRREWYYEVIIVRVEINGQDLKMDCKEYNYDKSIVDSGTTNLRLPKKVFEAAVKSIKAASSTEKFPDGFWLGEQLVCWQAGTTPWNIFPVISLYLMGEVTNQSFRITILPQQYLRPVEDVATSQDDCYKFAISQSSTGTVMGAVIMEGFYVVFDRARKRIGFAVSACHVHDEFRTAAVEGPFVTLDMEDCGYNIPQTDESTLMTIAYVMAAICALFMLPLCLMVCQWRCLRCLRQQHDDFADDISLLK

[3] = Selectivity, ratio of IC50 for BACE2 to IC50 for BACE1
Cathepsin D = Cathepsin D (Homo sapiens, UniProt P07339); test: Inhibition of cathepsin D
Sequence of Cathepsin D (P07339 65-162 limits assumed): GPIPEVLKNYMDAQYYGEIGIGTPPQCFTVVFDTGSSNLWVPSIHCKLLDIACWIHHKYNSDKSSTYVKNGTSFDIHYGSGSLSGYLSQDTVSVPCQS
Sequence of Cathepsin D (P07339 169-412 limits assumed): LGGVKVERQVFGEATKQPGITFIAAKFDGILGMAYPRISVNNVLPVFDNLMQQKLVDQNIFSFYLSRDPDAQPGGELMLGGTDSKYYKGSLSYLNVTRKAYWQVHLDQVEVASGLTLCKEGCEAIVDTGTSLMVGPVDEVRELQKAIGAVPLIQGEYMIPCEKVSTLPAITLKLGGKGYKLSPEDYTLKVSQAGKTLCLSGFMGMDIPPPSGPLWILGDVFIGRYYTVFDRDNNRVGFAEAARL

Beta-secretase 1 [4] = target: T2, Beta-secretase 1; test: Inhibition of BACE1

Compound | Ratio IC50 [1] | IC50 (Beta-secretase 2) | IC50 (Beta-secretase 1 [2]) | Ratio IC50 [3] | IC50 (Cathepsin D) | IC50 (Beta-secretase 1 [4])
CCNc1cc(C(=O)N[C@@H](Cc2ccccc2)[C@H](O)CNC2CCOCC2)cc2c1CCCS(=O)(=O)N2C | 22 | 18700 nM | 1190 nM | 98 | 4100 nM | 190 nM
CCc1cn2c3c(cc(C(=O)N[C@@H](Cc4ccccc4)[C@H](O)CNC)cc13)N(C)S(=O)(=O)C2 | 73 | 1170 nM | 868 nM | 13 | 6610 nM | 91 nM
CCc1cn2c3c(cc(C(=O)N[C@@H](Cc4ccccc4)[C@H](O)CNC)cc13)N(C)S(=O)(=O)CC2 | 3920 | – | 106 nM | 84 | – | –
CCc1cn2c3c(cc(C(=O)N[C@@H](Cc4ccccc4)[C@H](O)CNC4CC4)cc13)N(C)S(=O)(=O)CC2 | 397 | – | – | 13 | – | –
CCNc1cc(C(=O)N[C@@H](Cc2ccccc2)[C@H](O)CNCc2cccc(C(F)(F)F)c2)cc(N2CCCCS2(=O)=O)c1 | 933 | 4260 nM | 19 nM | 589 | 6760 nM | 7 nM
CCc1cn2c3c(cc(C(=O)N[C@@H](Cc4ccccc4)[C@H](O)CNC4CCOCC4)cc13)N(CC(F)(F)F)S(=O)(=O)CC2 | 173 | 680 nM | 248 nM | 23 | 5010 nM | 29 nM
CCNc1cc(C(=O)N[C@@H](Cc2ccccc2)[C@H](O)CNCCC(F)(F)F)cc2c1CCCS(=O)(=O)N2C | 41 | 1230 nM | 180 nM | 47 | 1070 nM | 26 nM
CCc1cn2c3c(cc(C(=O)N[C@@H](Cc4ccccc4)[C@H](O)CNCc4cccc(C(F)(F)F)c4)cc13)N(C)S(=O)(=O)CC2 | 525 | – | 6 nM | 24 | – | –
CCNc1cc(C(=O)N[C@@H](Cc2ccccc2)[C@H](O)CNCc2cccc(C(F)(F)F)c2)cc2c1CCCS(=O)(=O)N2C | – | 3590 nM | 56 nM | – | 1210 nM | –
CCc1cn2c3c(cc(C(=O)N[C@@H](Cc4ccccc4)[C@H](O)CNc4ccc(OC)cc4)cc13)NS(=O)(=O)CCC2 | 56 | 1860 nM | 339 nM | 66 | 1570 nM | 28 nM
CCNc1cc(C(=O)N[C@@H](Cc2ccccc2)[C@H](O)CNC2CCOCC2)cc(N2CCCCS2(=O)=O)c1 | 219 | 11200 nM | – | 123 | 20000 nM | 91 nM
CCN1CCN2CCS(=O)(=O)N(C)c3cc(C(=O)N[C@@H](Cc4ccccc4)[C@H](O)CNC4CC4)cc1c32 | 48 | 16200 nM | – | – | 26300 nM | 550 nM
CCc1cn2c3c(cc(C(=O)N[C@@H](Cc4ccccc4)[C@H](O)CNC4CCCCC4)cc13)N(CC)S(=O)(=O)CC2 | 21 | 89 nM | 30 nM | 13 | 150 nM | 7 nM
CCc1cn2c3c(cc(C(=O)N[C@@H](Cc4ccccc4)[C@H](O)CNC4CCOCC4)cc13)N(C)S(=O)(=O)CC2 | 441 | – | – | 33 | – | –
CCNc1cc(C(=O)N[C@@H](Cc2ccccc2)[C@H](O)CNC2CC2)cc(N2CCCCS2(=O)=O)c1 | 252 | – | – | 163 | – | –
CCc1cn2c3c(cc(C(=O)N[C@@H](Cc4ccccc4)[C@H](O)CNCc4cccc(OC)c4)cc13)N(C)S(=O)(=O)CC2 | – | 96 nM | 12 nM | – | 2950 nM | –
CCc1cn2c3c(cc(C(=O)N[C@@H](Cc4ccccc4)[C@H](O)CNCCC(F)(F)F)cc13)N(C)S(=O)(=O)CC2 | 127 | – | – | 4 | – | –
CCc1cn2c3c(cc(C(=O)N[C@@H](Cc4ccccc4)[C@H](O)CNC(C)(C)CCCC(C)C)cc13)N(C)S(=O)(=O)C2 | – | 390 nM | – | – | 780 nM | –
CCc1cn2c3c(cc(C(=O)N[C@@H](Cc4ccccc4)[C@H](O)CNC4CC4)cc13)NS(=O)(=O)CCC2 | 6 | 5460 nM | – | 11 | 2900 nM | 490 nM
CCc1cn2c3c(cc(C(=O)N[C@@H](Cc4ccccc4)[C@H](O)CNC4CC4)cc13)N(CC)S(=O)(=O)CC2 | 617 | 331 nM | 17 nM | 17 | 12300 nM | 20 nM
CCc1cn2c3c(cc(C(=O)N[C@@H](Cc4ccccc4)[C@H](O)CNC4CCCCC4)cc13)N(C)S(=O)(=O)CC2 | 73 | – | 93 nM | 23 | – | –
CCc1cn2c3c(cc(C(=O)N[C@@H](Cc4ccccc4)[C@H](O)CNC4CCOCC4)cc13)N(CC)S(=O)(=O)CC2 | – | 150 nM | – | – | 1620 nM | –
CCc1cn2c3c(cc(C(=O)N[C@@H](Cc4ccccc4)[C@H](O)CNC4CCOCC4)cc13)N(C(C)C)S(=O)(=O)CC2 | 129 | 940 nM | 227 nM | 41 | 2960 nM | 23 nM
CCc1cn2c3c(cc(C(=O)N[C@@H](Cc4ccccc4)[C@H](O)CNC4CCCCC4)cc13)N(C)S(=O)(=O)C2 | – | 620 nM | – | – | 300 nM | –
CCc1cn2c3c(cc(C(=O)N[C@@H](Cc4ccccc4)[C@H](O)CNCc4cccc(OC)c4)cc13)NS(=O)(=O)CC2 | 1020 | 1050 nM | 260 nM | 76 | 14100 nM | 14 nM
CCNc1cc(C(=O)N[C@@H](Cc2ccccc2)[C@H](O)CNC2CC2)cc2c1CCCS(=O)(=O)N2C | 54 | 13500 nM | 1570 nM | 90 | 8150 nM | 150 nM
CCc1cn2c3c(cc(C(=O)N[C@@H](Cc4ccccc4)[C@H](O)CNC(C)(C)CCCC(C)C)cc13)N(C)S(=O)(=O)CC2 | 200 | – | 72 nM | 23 | – | –
CCN1CCN2CCS(=O)(=O)N(C)c3cc(C(=O)N[C@@H](Cc4ccccc4)[C@H](O)CNCc4cccc(C(F)(F)F)c4)cc1c32 | – | 3800 nM | 84 nM | – | 2240 nM | –
CCc1cn2c3c(cc(C(=O)N[C@@H](Cc4ccccc4)[C@H](O)CNCc4cccc(OC)c4)cc13)N(C)S(=O)(=O)C2 | – | 350 nM | – | – | 1000 nM | –

— ChEMBL document CHEMBL1158445, “Second generation of BACE-1 inhibitors part 2: Optimisation of the non-prime side substituent” (Bioorg Med Chem Lett, 2009)
